Measured values taken from the supplement of paper PMC11919725.

What was measured:
Jurkat [1] = assay: cytotoxicity relative to DMSO, 18 h (ratio); higher = less cell death (drugs called cytotoxic fall below 1)
Summary of the method: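 Jurkat cells or primary CD4+/CD8+ T cells, either naive or activated for 48 h with CD3/CD28 Dynabeads, were exposed to compound from 1 nM to 10 µM in log10 steps for 18 h at 37 °C, 5% CO2. Aliquots of 100 µl of suspension were then moved to 96-well plates containing IncuCyte Cytotox Dye at 250 nM final. Cytotoxicity was read by IncuCyte fluorescence imaging, with signals corrected for confluency and normalised to the mean of control wells.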

Jurkat [2] = assay: metabolic activity relative to DMSO, 18 h (ratio); higher = more viable
Summary of the method: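 Metabolic activity was expressed relative to the mean of vehicle control wells. Jurkat cells or primary CD4+/CD8+ T cells, either naive or activated for 48 h with CD3/CD28 Dynabeads, were exposed to compound from 1 nM to 10 µM in log10 steps for 18 h at 37 °C, 5% CO2. Aliquots of 100 µl of suspension were moved to 96-well plates containing alamarBlue (10% v/v final), and fluorescence was read after 3.5 h on a FluoStar Omega at excitation 544 nm and emission 584 nm.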

Jurkat [3] = assay: confluency relative to DMSO, 18 h (ratio); higher = more viable
Summary of the method: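 Jurkat or primary CD4+/CD8+ T cells (naive, or activated 48 h with CD3/CD28 Dynabeads) were treated 18 h with compound at 1 nM–10 µM (log10 steps) at 37 °C, 5% CO2. Then 100 µl of suspension went into 96-well plates with IncuCyte Cytotox Dye and alamarBlue. Confluency came from IncuCyte phase-contrast imaging (×10, five images per well, hourly over 3 h) using the Basic Analyzer. Values are normalised to mean DMSO controls.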

Structure (SMILES) | cytotoxicity (Jurkat [1]; 1 nM) | cytotoxicity (Jurkat [1]; 10 nM) | cytotoxicity (Jurkat [1]; 100 nM) | cytotoxicity (Jurkat [1]; 1000 nM) | cytotoxicity (Jurkat [1]; 10000 nM) | metabolic activity (Jurkat [2]; 1 nM) | metabolic activity (Jurkat [2]; 10 nM) | metabolic activity (Jurkat [2]; 100 nM) | metabolic activity (Jurkat [2]; 1000 nM) | metabolic activity (Jurkat [2]; 10000 nM) | confluency (Jurkat [3]; 1 nM) | confluency (Jurkat [3]; 10 nM) | confluency (Jurkat [3]; 100 nM) | confluency (Jurkat [3]; 1000 nM) | confluency (Jurkat [3]; 10000 nM)
CN(C)CC(=O)Nc1ccc2[nH]c(=O)c3ccccc3c2c1 [PJ34] | 0.966 | 0.947 | 0.963 | 0.932 | 1.17 | 0.99 | 1.03 | 1.04 | 0.955 | 1.12 | 0.971 | 0.933 | 0.94 | 0.99 | 0.968
CC(=O)OC1C(=O)C2(C)C(O)CC3OCC3(OC(C)=O)C2C(OC(=O)c2ccccc2)C2(O)CC(OC(=O)C(O)C(NC(=O)c3ccccc3)c3ccccc3)C(C)=C1C2(C)C (stereo not given) [Paclitaxel] | 1.16 | 0.953 | 0.883 | 0.854 | 0.797 | 1.05 | 0.568 | 0.576 | 0.534 | 0.744 | 1 | 0.989 | 0.964 | 0.939 | 0.81
CC(=O)c1c(C)c2cnc(Nc3ccc(N4CCNCC4)cn3)nc2n(C2CCCC2)c1=O [Palbociclib] | 0.851 | 0.93 | 0.95 | 1.03 | 0.793 | 0.877 | 0.988 | 0.96 | 0.995 | 0.88 | 0.829 | 0.902 | 0.974 | 1.04 | 0.813
Nc1nc2[nH]cc(CCc3ccc(C(=O)NC(CCC(=O)O)C(=O)O)cc3)c2c(=O)[nH]1 (stereo not given) [Pemetrexed] | 0.992 | 0.997 | 0.837 | 0.821 | 0.75 | 1.02 | 1.11 | 1.06 | 1.09 | 0.853 | 1 | 0.962 | 0.845 | 0.839 | 0.835
CC(=O)N1CCC(Nc2cc(C(=O)NCC(O)CN3CCc4ccccc4C3)ncn2)CC1 (stereo not given) [Pemrametostat] | 1.07 | 1.09 | 1.06 | 1.05 | 1.05 | 0.952 | 0.904 | 0.931 | 0.95 | 1.2 | 1.05 | 1.06 | 1.01 | 1.03 | 0.947
COc1ccc(Cl)c(Nc2nc3ccccc3nc2NS(=O)(=O)c2cccc(NC(=O)C(C)(C)N)c2)c1 [Pilaralisib] | 1.06 | 1.11 | 1.1 | 0.959 | 0.942 | 1.02 | 1.03 | 1.03 | 0.939 | 0.877 | 0.978 | 1.01 | 1.01 | 0.994 | 0.976
CC(C)N(CC1OC(n2cnc3c(N)ncnc32)C(O)C1O)C1CC(CCc2nc3ccc(C(C)(C)C)cc3[nH]2)C1 (stereo not given) [Pinometostat] | 0.982 | 1.06 | 1.25 | 1.01 | 1 | 0.998 | 1.05 | 1.12 | 0.858 | 0.958 | 0.929 | 0.934 | 1.11 | 1.02 | 0.941
Nc1cccc2c1C(=O)N(C1CCC(=O)NC1=O)C2=O (stereo not given) [Pomalidomide] | 1.04 | 0.986 | 0.512 | 1.03 | 0.936 | 0.995 | 1.01 | 1.04 | 1.12 | 1.09 | 0.955 | 0.902 | 0.943 | 0.948 | 0.94
CC12C=CC(=O)C=C1CCC1C2C(=O)CC2(C)C1CCC2(O)C(=O)CO (stereo not given) [Prednisone] | 0.964 | 1.01 | 1.02 | 1.05 | 1.21 | 0.872 | 0.991 | 1.07 | 1.04 | 1.15 | 1.01 | 0.981 | 0.993 | 1.01 | 1.02
Cn1cc(CNCC2CCN(c3ncc(C(=O)NO)cn3)CC2)c2ccccc21 [Quisinostat] | 0.816 | 1.07 | 0.897 | 0.958 | 0.908 | 0.876 | 1.04 | 0.875 | 0.688 | 0.667 | 0.847 | 0.918 | 0.963 | 1.02 | 0.957
COc1ccc(F)c(F)c1C(=O)c1cnc(NC2CCN(S(C)(=O)=O)CC2)nc1N [R-547] | 1.01 | 0.934 | 1.08 | 1.04 | 1.04 | 1.09 | 1.02 | 1 | 0.739 | 0.134 | 1.07 | 1.18 | 1.04 | 1.04 | 1.01
COC1CC2CCC(C)C(O)(O2)C(=O)C(=O)N2CCCCC2C(=O)OC(C(C)CC2CCC(O)C(OC)C2)CC(=O)C(C)C=C(C)C(O)C(OC)C(=O)C(C)CC(C)C=CC=CC=C1C (stereo not given) [Rapamycin] | 0.973 | 1.02 | 1.05 | 0.913 | 0.831 | 0.859 | 0.948 | 0.789 | 0.77 | 0.742 | 1.01 | 0.98 | 0.933 | 0.902 | 0.81
Cn1nccc1Nc1nccc(-c2ccn(C(CO)c3ccc(Cl)c(F)c3)c(=O)c2)n1 (stereo not given) [Ravoxertinib] | 1.1 | 0.921 | 1 | 0.983 | 1.02 | 0.977 | 0.997 | 1.04 | 1.07 | 1.1 | 0.989 | 0.841 | 0.884 | 0.894 | 0.886
CN(C)C(=O)c1cc2cnc(Nc3ccc(N4CCNCC4)cn3)nc2n1C1CCCC1 [Ribociclib] | 0.914 | 0.883 | 1.01 | 0.984 | 1.06 | 0.887 | 0.874 | 0.862 | 0.879 | 0.856 | 1 | 0.964 | 1.09 | 1.06 | 1.14
O=C(CCCCCCNC(=O)c1cnc(N(c2ccccc2)c2ccccc2)nc1)NO [Ricolinostat] | 1.01 | 0.933 | 1.07 | 0.969 | 0.881 | 0.874 | 0.881 | 0.933 | 0.841 | 0.655 | 1.01 | 1 | 1.03 | 0.976 | 0.984
COc1cc(OC)c(C=CS(=O)(=O)Cc2ccc(OC)c(NCC(=O)O)c2)c(OC)c1 [Rigosertib] | 0.92 | 0.988 | 0.948 | 0.711 | 0.621 | 1.01 | 1.01 | 0.87 | 0.426 | 0.468 | 1.02 | 1.01 | 1.01 | 0.871 | 0.797
CN1CCC(c2c(O)cc(O)c3c(=O)cc(-c4ccccc4Cl)oc23)C1CO (stereo not given) [Riviciclib] | 0.627 | 0.605 | 1 | 0.783 | 1.04 | 1.04 | 0.872 | 0.754 | 0.6 | 0.242 | 1.07 | 1.04 | 0.985 | 0.866 | 1.03
CC=C1NC(=O)C2CSSCCC=CC(CC(=O)NC(C(C)C)C(=O)N2)OC(=O)C(C(C)C)NC1=O (stereo not given) [Romidepsin] | 0.904 | 0.961 | 0.914 | 1.03 | 1.06 | 1.1 | 0.839 | 0.703 | 0.539 | 0.042 | 0.987 | 1.07 | 1.02 | 1 | 1.03
CNCc1ccc(-c2[nH]c3cc(F)cc4c3c2CCNC4=O)cc1 [Rucaparib] | 1.06 | 1 | 1.04 | 1.07 | 0.899 | 0.926 | 0.952 | 0.981 | 0.996 | 0.973 | 1.06 | 1.03 | 1.04 | 1.07 | 0.931
CC(C)(C)c1cnc(CSc2cnc(NC(=O)C3CCNCC3)s2)o1 [SNS-032] | 1.06 | 1.06 | 1.06 | 0.66 | 0.657 | 0.778 | 0.953 | 0.979 | 0.192 | 0.167 | 1.13 | 1.09 | 1.08 | 1.13 | 1.17
O=C(Nc1cccc(Cl)c1)Nc1ncc(CCNc2ncnc3ccsc23)s1 [SNS-314] | 0.951 | 0.912 | 0.92 | 0.832 | 0.733 | 0.955 | 0.945 | 0.979 | 0.909 | 0.797 | 0.951 | 0.963 | 0.974 | 0.907 | 0.78
Cc1nc(-c2cccnc2)sc1C(=O)Nc1ccccc1-c1cn2c(CN3CCOCC3)csc2n1 [SRT2104] | 1.13 | 1.06 | 1.13 | 1.11 | 1.05 | 1.03 | 1.01 | 1.03 | 1.03 | 0.982 | 1.06 | 1.02 | 1.05 | 1.04 | 0.971
CCC(CO)Nc1nc(NCc2ccccc2)c2ncn(C(C)C)c2n1 (stereo not given) [Seliciclib] | 1.02 | 0.922 | 0.883 | 0.948 | 0.957 | 0.994 | 0.987 | 0.945 | 0.962 | 1.03 | 1.03 | 0.968 | 0.924 | 0.977 | 0.943
NC(=O)C1CCCc2c1[nH]c1ccc(Cl)cc21 (stereo not given) [Selisistat] | 0.974 | 0.979 | 0.932 | 1.09 | 0.974 | 1.06 | 1.02 | 0.995 | 1.09 | 1.05 | 0.962 | 0.984 | 0.973 | 0.992 | 0.992
Cn1cnc2c(F)c(Nc3ccc(Br)cc3Cl)c(C(=O)NOCCO)cc21 [Selumetinib] | 1.01 | 0.984 | 1.06 | 1.02 | 0.959 | 1.05 | 1.04 | 1.03 | 1.03 | 1.07 | 0.985 | 0.965 | 0.988 | 0.983 | 0.974
c1ccc2c(CCNc3ccc(Nc4ccncc4)cc3)c[nH]c2c1 [Serdemetan] | 1.08 | 1.1 | 1.21 | 1.06 | 0.829 | 1.04 | 0.963 | 0.905 | 0.863 | 0.816 | 1.02 | 1.02 | 1.06 | 1.04 | 0.841
CNC1CC2OC(C)(C1OC)n1c3ccccc3c3c4c(c5c6ccccc6n2c5c31)C(=O)NC4 (stereo not given) [Staurosporine] | 0.826 | 0.955 | 0.959 | 1.04 | 0.913 | 0.916 | 1.06 | 0.979 | 1.02 | 0.995 | 0.829 | 0.908 | 0.897 | 0.964 | 0.876
CCN(CC)CCNC(=O)c1c(C)[nH]c(C=C2C(=O)Nc3ccc(F)cc32)c1C [Sunitinib] | 0.992 | 0.874 | 1.01 | 0.752 | 0.546 | 1.07 | 0.92 | 0.991 | 0.874 | 0.795 | 0.994 | 0.89 | 0.969 | 0.836 | 0.635
Cn1cc(-c2nc(NC3CCCCC3N)c(F)c3c2C(=O)NC3)cn1 (stereo not given) [TAK-659] | 0.994 | 1.11 | 0.902 | 0.949 | 0.883 | 1.07 | 1.12 | 0.932 | 0.867 | 0.955 | 0.984 | 1.04 | 0.979 | 0.946 | 0.896
